# Experimental data: publication PMC9161444, “In-Membrane Nanostructuring of Cationic Amphiphiles Affects Their Antimicrobial Efficacy and Cytotoxicity: A Comparison Study between a De Novo Antimicrobial Lipopeptide and Traditional Biocides” (Langmuir, 2022)
# Residues, ends and D or L forms follow the SMILES beside them. No end group written: not given here. *: point of attachment. Myristoyl = CCCCCCCCCCCCCC(=O)*
# Key:
# [1] = previous findings by Lu et al.; cited from earlier work
# Source text: From the best fitted surface tension parameters (listed in Table S2), the area per molecule (APM) could be calculated from eq 4 for each amphiphile at its respective CAC. […] This is in line with the previous findings by Lu et al., which stated that APMs of C10TAB, C12TAB, C14TAB, C16TAB, and C18TAB adsorbed on the surface of water were 55 ± 3, 50 ± 2, 48 ± 3, 43 ± 3, and 43 ± 3 Å^2, respectively.[29]−[33] Each lipopeptide molecule occupied around 79 ± 10 Å^2 at ...
# [2] = test system: C. albicans SC5314 (ATCC MYA-2876); format: cell-based, Candida albicans; settings: SC5314, 48 h
# Experimental: (§1) E. coli (ATCC 25922), S. aureus (ATCC 6538), and C. albicans SC5314 (ATCC MYA-2876) were purchased from the American Type Culture Collection (ATCC). The two bacterial strains, E. coli and S. aureus, were cultured in Mueller Hinton broth at 37 °C; while the yeast strain, C. albicans, was grown in RPMI 1640 medium at 30 °C. The microdilution method was employed to determine MICs of the amphiphiles against the microorganism strains listed above.[21] Solutions of lipopeptides and biocides were half-diluted serially in 96-well plates using PBS buffer containing 137 mM NaCl, 2.7 mM KCl, 8.1 mM Na2HPO4, and 1.9 mM KH2PO4 for E. coli and S. aureus and using RPMI 1640 for C. albicans. Overnight incubations of the strains, in each respective growth medium, were then inoculated into each well, giving final concentrations of 10^6 CFU/mL for E. coli and S. aureus and 10^5 CFU/mL for C. albicans. Culture media without microorganisms and amphiphiles were employed as positive controls, while fresh microorganism cultures without amphiphiles were used as negative controls. Each plate has both positive controls and negative controls. The plates were then incubated at an appropriate temperature (stated above) for 24 h for the bacterial strains and 48 h for the yeast strain. MICs of each sample were first determined by eye. A more quantitative analysis was carried out by measuring optical densities at 600 nm (OD600) of each well using a Sunrise absorbance microplate reader (Tecan Group Ltd.). Inhibitory ratios (IRs) of each sample at a given concentration against a specific strain, denoted as IRi, were calculated by IRi = (OD600,negative control – OD600,i)/(OD600,negative control – OD600,positive control) × 100%. All experiments were repeated at least three times with each group containing three replicates. To better analyze concentration–IR relationships, sigmoidal function fittings were employed to generate the best fitted dose response curve for each situation.
# S. aureus (ATCC 6538) = format: cell-based, Staphylococcus aureus; settings: ATCC 6538, 24 h
# Experimental: as §1
# E. coli (ATCC 25922) = format: cell-based, Escherichia coli; settings: ATCC 25922, 24 h
# Experimental: as §1
# hRBCs = format: cell-based, human
# Experimental: hRBCs were purchased from Rockland Immunochemical Inc. Hemolytic assays were performed in 96-well plates in an environment of PBS, as previously described.[13],[23] Amphiphiles were half diluted serially at first, resulting in 100 μL of solution in each well, and mixed subsequently with 100 μL of 4% hRBC suspension. Wells filled by PBS mixed with hRBC were employed as positive controls, while hRBCs with added 0.1% Triton X-100 were negative controls. After incubating at 37 °C for 1 h, the plates were centrifuged at 1000 times gravity for 5 min. The supernatants in each well, which contained the released hemoglobin, were transferred to another plate, and their optical density at 450 nm (OD450) was measured using an absorbance microplate reader. The percentage of hemolysis H for each sample at a certain concentration c was obtained by Hc = (OD450,c – OD450,positive control)/(OD450,negative control – OD450,positive control) × 100%. Figures for percentage leakage against concentration for each sample were plotted to determine the approximate range of 50% hemolysis, and the relevant concentration was the half maximal effective concentration (EC50) of the sample. Each experiment was repeated at least three times with each containing three replicates. The dose–response curves were again obtained by applying sigmoidal functional fits to obtain the EC50 values.
# [3] = test system: Human dermal fibroblasts cells (adult, HDFa cells); format: cell-based; settings: 24 h
# Experimental: (§2) Human dermal fibroblasts cells (adult, HDFa cells) and NIH 3T3 fibroblasts cells (3T3 cells, ATCC-1658) were cultured at 37 °C in Dulbecco’s modified Eagle medium (ATCC30-2002, added with 10% heat-inactivated fetal bovine serum) with a continuous supply of CO2 at a 5% level. MTT assays were carried out to examine in vitro cytotoxicity of the amphiphiles.[22] Cells were first inoculated in flat-bottom 96-well plates, rendering 8 × 10^3 cells in 100 μL of medium for each well, and were incubated for 24 h. The cells were mixed with 100 μL of a solution of an amphiphile with 2 times the selected concentrations. Cells were then exposed to the solutions of each amphiphile for 24 h, after which 10 μL of 5 mg/mL MTT solution was added into each well, and the reaction was allowed for 2 h. 200 μL of dimethyl sulfoxide was then added to each well to dissolve the transformed MTT formazan. Light absorbance of the samples was measured using a Thermo Scientific Varioskan LUX at 570 nm. Cell samples 100% viable and 100% dead were employed as the positive control and negative control, respectively. Dose response curves were obtained by applying sigmoidal function fittings to obtain 50% effective concentrations (EC50).
# [4] = test system: NIH 3T3 fibroblasts cells (3T3 cells, ATCC-1658); format: cell-based; settings: 24 h
# Experimental: as §2
# [5] = Analytical RP-HPLC retention time as measure of hydrophobicity; format: physicochemical; settings: gradient of eluents
# Experimental: Lipopeptide C14KKGGII was synthesized in the form of acyl chain hydrogenated h-C14KKGGII and acyl chain deuterated d-C14KKGGII. The lipopeptide samples were prepared using a Liberty Blue automated microwave peptide synthesizer, where the standard Fmoc solid-phase strategy was followed. Dimethylformamide (DMF) was used as the solvent during the whole process. Rink-amide resin was employed as a loading anchor to synthesize C-terminal amidated lipopeptides and was swelled for 5 min in DMF before synthesis. After the removal of Fmoc groups on resins, amino acids (Fmoc-Gly-OH, Fmoc-Ile-OH, and Fmoc-Lys-OH in this study) were coupled to the solid phase in succession from the C-terminal to the N-terminal, assisted by the addition of ethyl 2-cyano-2-(hydroxyimino)acetate (OXYMA) and N,N′-diisopropylcarbodiimide (DIC) at 90 °C for 4 min. Fmoc protecting groups on amino acids were removed before further linking using 20% piperidine in DMF. Hydrogenated or deuterated myristic acid was added onto the chain in the last step using the same method. A cleavage mixture of trifluoroacetic acid (TFA), water, and tri-isopropylsilane (TIS) (94/4/2, v/v/v) was employed for the reaction with lipopeptide-loaded resins for 3 h at ambient temperature, removing the side chain protecting groups on the amino acids and releasing lipopeptides from the resin beads. […]
compound,measurement,setting,value
CCCCCCCCCC[N+](C)(C)C.[Br-] [C10TAB],APM adsorbed on the surface of water,[1],55 ± 3 Å^2
"CCCCCCCCCCCCCC(=O)N[C@@H](CCCCN)C(=O)N[C@@H](CCCCN)C(=O)NCC(=O)NCC(=O)N[C@H](C(=O)N[C@H](C(N)=O)[C@@H](C)CC)[C@@H](C)CC [C14KKGGII, CH3(CH2)12CO-Lys-Lys-Gly-Gly-Ile-Ile-NH2] (Myristoyl-KKGGII-NH2)","MIC, C. albicans",[2],12 ± 2 µM
same,"MIC, S. aureus",S. aureus (ATCC 6538),9 ± 3 µM
same,"MIC, E. coli",E. coli (ATCC 25922),16 ± 6 µM
same,concentration at which hemolysis starts,hRBCs,16 µM
same,EC50,hRBCs; 1 h,180 ± 30 µM
same,EC50,[3],110 ± 30 µM
same,EC50,[4],66 ± 6 µM
CCCCCCCCCCCCCCCC[N+](C)(C)C.[Br-] [C16TAB],APM adsorbed on the surface of water,[1],43 ± 3 Å^2
CCCCCCCCCCCCCCCCCC[N+](C)(C)C.[Br-] [C18TAB],APM adsorbed on the surface of water,[1],43 ± 3 Å^2
"CD3(CD2)12CO-KKGGII-NH2 [dC14KKGGII, acyl chain deuterated C14KKGGII]",RP-HPLC retention time (comparison of hydrophobicity),[5],25.6 min
"KKGGII-NH2 [KKGGII, KKGGII-NH2]",RP-HPLC retention time (comparison of hydrophobicity),[5],15.4 min
